Results from ChEMBL document CHEMBL4251696, “Discovery of a Stress-Activated Protein Kinase Inhibitor for Lymphatic Filariasis” (ACS Med Chem Lett, 2018).
The source made the active and inactive calls. The calls are words filed in the database; no cut-off is given here.

Key:
Brugia malayi [1] = assay: Inhibition of recombinant Brugia malayi MPK1a at 1 uM using FAM-p38tide as substrate by IMAP assay relative to control
[2] = Inhibition of recombinant Brugia malayi MPK1a using FAM-p38tide as substrate by IMAP assay
[3] = Inhibition of sodium arsenate activated N-terminal GST-tagged Brugia malayi MPK1 expressed in HEK293F cells using FAM-p38tide as substrate by IMAP assay
[4] = Stability in mouse microsomes assessed as parent compound remaining after 1 hr; type: ADME, Microsome; conditions: read-out: Stability
[5] = target: Mitogen-activated protein kinase 10 (Homo sapiens) (UniProt P53779); assay: Inhibition of human JNK3 FAM-EGFR-derived peptide as substrate by IMAP assay
CYP2C19 = CYP2C19 (Homo sapiens, UniProt P33261); assay: Inhibition of CYP2C19 (unknown origin) at 5 uM relative to control; type: ADME
CYP2D6 = CYP2D6 (Homo sapiens, UniProt P10635); assay: Inhibition of CYP2D6 (unknown origin) at 5 uM relative to control; type: ADME
CYP3A4 = CYP3A4 (Homo sapiens, UniProt P08684); assay: Inhibition of CYP3A4 (unknown origin) at 5 uM relative to control; type: ADME
[6] = Ratio of unbound Cmax in mouse at 30 mg/kg, po to IC50 for Brugia malayi MPK1a; type: ADME, organism-based; conditions: in vivo
Mus musculus = assay: Time at which plasma concentration stays above in vitro IC50 for Brugia malayi MPK1a in mouse at 30 mg/kg, po; type: ADME, organism-based; conditions: in vivo
Brugia malayi [7] = assay: Antifilarial activity against Brugia malayi microfilaria assessed as increase in copper-induced reduction in parasite motility at 0.1 to 1 uM measured daily for 5 days; type: functional, organism-based
CYP2C9 = CYP2C9 (Homo sapiens, UniProt P11712); assay: Inhibition of CYP2C9 (unknown origin) at 5 uM relative to control; type: ADME
[8] = target: Mitogen-activated protein kinase 14 (Homo sapiens, UniProt Q16539); assay: Inhibition of human p38alpha using FAM-p38tide as substrate by IMAP assay
[9] = Protein binding in mouse plasma; type: ADME, cell-free; conditions: read-out: PPB (converted)
CYP1A2 = target: T1, CYP1A2 (Homo sapiens, UniProt P05177); assay: Inhibition of CYP1A2 (unknown origin) at 5 uM relative to control; type: ADME
T1 sequence (P05177 whole entry): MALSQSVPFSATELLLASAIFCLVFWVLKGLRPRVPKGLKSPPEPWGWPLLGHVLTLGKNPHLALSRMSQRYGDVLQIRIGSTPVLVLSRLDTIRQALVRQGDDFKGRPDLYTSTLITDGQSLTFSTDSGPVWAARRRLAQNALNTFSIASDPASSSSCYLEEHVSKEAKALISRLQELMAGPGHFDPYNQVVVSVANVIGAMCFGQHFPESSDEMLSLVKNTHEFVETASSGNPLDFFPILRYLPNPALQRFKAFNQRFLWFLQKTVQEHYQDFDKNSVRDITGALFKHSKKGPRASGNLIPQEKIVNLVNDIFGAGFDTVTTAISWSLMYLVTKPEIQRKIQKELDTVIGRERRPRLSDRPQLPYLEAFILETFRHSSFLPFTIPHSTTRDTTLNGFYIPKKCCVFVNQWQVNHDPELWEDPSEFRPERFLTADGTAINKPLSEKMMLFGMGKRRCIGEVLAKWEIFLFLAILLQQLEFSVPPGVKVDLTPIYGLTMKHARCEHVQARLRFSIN

Brugia malayi [10] = assay: Antifilarial activity against adult Brugia malayi assessed as increase in copper-induced reduction in parasite motility at 0.1 to 1 uM measured daily for 5 days; type: functional, organism-based
[11] = Cmax in mouse at 30 mg/kg, po; type: ADME, organism-based; set-up: dose 30 mg/kg, route oral; conditions: in vivo
[12] = Stability in human microsomes assessed as parent compound remaining after 1 hr; type: ADME, Microsome; conditions: read-out: Stability
[13] = AUC in mouse at 30 mg/kg, po; type: ADME, organism-based; conditions: in vivo
[14] = Tmax in mouse at 30 mg/kg, po; type: ADME, organism-based; conditions: in vivo

CYP2D6, sequence (P10635 whole entry): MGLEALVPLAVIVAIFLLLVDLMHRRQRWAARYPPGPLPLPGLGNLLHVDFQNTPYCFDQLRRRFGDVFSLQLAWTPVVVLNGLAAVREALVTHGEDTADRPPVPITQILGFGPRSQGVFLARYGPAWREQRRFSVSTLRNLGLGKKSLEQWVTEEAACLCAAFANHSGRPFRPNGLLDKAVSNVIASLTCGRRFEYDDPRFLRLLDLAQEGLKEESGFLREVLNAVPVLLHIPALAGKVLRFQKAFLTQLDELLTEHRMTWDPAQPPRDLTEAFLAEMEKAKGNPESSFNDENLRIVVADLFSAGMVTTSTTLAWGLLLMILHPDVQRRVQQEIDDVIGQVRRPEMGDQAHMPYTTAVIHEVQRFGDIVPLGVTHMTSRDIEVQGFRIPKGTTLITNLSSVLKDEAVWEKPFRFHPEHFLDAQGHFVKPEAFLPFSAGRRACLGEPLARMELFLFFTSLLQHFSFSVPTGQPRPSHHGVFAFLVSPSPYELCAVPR
CYP3A4, sequence (P08684 whole entry): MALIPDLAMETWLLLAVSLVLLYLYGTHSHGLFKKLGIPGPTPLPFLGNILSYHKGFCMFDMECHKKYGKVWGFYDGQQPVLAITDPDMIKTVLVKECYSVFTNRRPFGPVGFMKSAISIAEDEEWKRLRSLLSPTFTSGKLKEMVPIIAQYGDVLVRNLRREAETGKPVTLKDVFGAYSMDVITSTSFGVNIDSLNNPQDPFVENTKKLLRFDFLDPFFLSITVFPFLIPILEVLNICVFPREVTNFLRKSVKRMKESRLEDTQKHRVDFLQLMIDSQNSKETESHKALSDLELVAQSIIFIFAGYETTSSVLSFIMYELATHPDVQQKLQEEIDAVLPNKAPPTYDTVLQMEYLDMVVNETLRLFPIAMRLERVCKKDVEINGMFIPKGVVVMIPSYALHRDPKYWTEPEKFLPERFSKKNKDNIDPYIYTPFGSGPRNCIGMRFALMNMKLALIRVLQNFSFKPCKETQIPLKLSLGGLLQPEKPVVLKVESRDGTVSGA
CYP2C9, sequence (P11712 whole entry): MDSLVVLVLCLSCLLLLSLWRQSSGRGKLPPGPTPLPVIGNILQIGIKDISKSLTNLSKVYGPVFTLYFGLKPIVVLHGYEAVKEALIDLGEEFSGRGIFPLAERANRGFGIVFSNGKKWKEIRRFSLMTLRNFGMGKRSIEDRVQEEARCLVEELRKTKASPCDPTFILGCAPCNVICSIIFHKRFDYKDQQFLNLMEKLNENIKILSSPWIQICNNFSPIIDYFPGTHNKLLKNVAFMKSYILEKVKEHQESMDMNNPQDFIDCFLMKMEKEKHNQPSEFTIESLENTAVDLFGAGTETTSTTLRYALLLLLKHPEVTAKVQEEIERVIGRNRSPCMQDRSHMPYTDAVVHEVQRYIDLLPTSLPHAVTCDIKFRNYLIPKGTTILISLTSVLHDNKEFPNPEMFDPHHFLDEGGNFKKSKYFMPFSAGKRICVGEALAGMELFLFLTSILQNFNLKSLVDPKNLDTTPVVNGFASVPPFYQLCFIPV
Mitogen-activated protein kinase 14, sequence (Q16539 whole entry): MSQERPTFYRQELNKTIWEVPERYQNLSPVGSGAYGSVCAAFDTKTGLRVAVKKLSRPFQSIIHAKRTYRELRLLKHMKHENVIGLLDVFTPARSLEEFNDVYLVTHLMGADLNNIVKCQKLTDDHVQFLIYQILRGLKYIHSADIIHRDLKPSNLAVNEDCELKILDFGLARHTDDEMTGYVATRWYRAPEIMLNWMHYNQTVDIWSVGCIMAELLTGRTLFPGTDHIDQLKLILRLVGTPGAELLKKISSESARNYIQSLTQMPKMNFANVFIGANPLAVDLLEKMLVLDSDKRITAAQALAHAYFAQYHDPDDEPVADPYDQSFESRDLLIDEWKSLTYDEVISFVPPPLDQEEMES
Mitogen-activated protein kinase 10 (Homo sapiens), sequence (P53779 whole entry, looked up): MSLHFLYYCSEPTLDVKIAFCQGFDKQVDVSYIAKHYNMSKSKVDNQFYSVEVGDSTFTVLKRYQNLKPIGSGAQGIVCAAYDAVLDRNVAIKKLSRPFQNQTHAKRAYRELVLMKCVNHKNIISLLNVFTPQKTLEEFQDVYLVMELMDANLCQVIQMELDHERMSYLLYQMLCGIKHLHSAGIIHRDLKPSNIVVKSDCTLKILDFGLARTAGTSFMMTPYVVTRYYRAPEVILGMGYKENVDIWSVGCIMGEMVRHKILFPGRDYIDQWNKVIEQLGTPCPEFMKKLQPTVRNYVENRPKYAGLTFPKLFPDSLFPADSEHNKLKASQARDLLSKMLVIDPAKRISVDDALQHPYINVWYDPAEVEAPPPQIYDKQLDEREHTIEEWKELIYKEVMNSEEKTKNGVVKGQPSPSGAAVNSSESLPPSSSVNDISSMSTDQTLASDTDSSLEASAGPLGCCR
CYP2C19, sequence (P33261 whole entry): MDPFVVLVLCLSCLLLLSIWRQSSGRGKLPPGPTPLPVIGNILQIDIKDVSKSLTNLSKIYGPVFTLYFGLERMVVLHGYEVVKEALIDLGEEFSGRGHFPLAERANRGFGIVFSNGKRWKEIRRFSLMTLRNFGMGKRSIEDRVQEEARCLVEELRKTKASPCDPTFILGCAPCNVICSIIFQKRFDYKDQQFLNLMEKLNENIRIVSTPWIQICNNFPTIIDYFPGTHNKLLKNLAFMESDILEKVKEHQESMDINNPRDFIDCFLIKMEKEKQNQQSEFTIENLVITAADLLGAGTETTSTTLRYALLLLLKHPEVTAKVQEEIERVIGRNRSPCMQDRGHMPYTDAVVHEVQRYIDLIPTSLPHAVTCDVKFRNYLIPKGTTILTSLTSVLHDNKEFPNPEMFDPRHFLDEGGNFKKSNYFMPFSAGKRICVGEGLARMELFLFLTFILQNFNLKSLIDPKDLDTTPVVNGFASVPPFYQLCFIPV

For `Cc1onc(-c2ccccc2)c1-c1ccnc(NC2CCCN(C(=O)OC(C)(C)C)C2)n1` (racemic), the inhibition (Brugia malayi [1]) was 45%.
With `CC(=O)N1CC[C@@H](Nc2nccc(-c3c(-c4ccccn4)noc3C)n2)C1` the inhibition (Brugia malayi [1]) was 7%.
With `Cc1onc(-c2ccccc2)c1-c1ccnc(NCCNC(=O)OC(C)(C)C)n1` the inhibition (Brugia malayi [1]) was 0%.
In the case of `CC(=O)N1CC[C@@H](Nc2nccc(-c3c(-c4ccccc4)noc3C)n2)C1`, the inhibition (Brugia malayi [1]) is reported as 87% and the IC50 [2] is reported as 130 nM.
In the case of `CC(=O)N1CC[C@@H](Nc2nccc(-c3c(-c4cccnc4)noc3C)n2)C1`, the inhibition (Brugia malayi [1]) is reported as 3%.
Compound `Cc1onc(-c2ccccc2)c1-c1ccnc(NCCCNC(=O)OC(C)(C)C)n1` has an inhibition (Brugia malayi [1]) of 45%.
In the case of `Cc1ccc(-n2nc(C(C)(C)C)cc2NC(=O)Nc2ccc(OCCN3CCOCC3)c3ccccc23)cc1` [DORAMAPIMOD], the IC50 [3] is reported as 140 nM.
In the case of `C[S+]([O-])c1ccc(-c2nc(-c3ccc(F)cc3)c(-c3ccncc3)[nH]2)cc1` (stereo unspecified) [SB-203580], the IC50 [3] is reported as 220 nM.
For `Cc1onc(-c2ccccc2)c1-c1ccnc(N[C@H]2CCN(C(=O)OC(C)(C)C)C2)n1`, the inhibition (Brugia malayi [1]) was 0% and the IC50 [2] was 360 nM.
Compound `Cc1onc(-c2ccccc2)c1-c1ccnc(N[C@@H]2CCNC2)n1` has an inhibition (Brugia malayi [1]) of 64% and an IC50 [2] of 700 nM.
For `Cc1onc(-c2ccccc2)c1-c1ccnc(N[C@@H]2CCN(S(C)(=O)=O)C2)n1`, the inhibition (Brugia malayi [1]) was 70% and the IC50 [2] was 520 nM.
`Cc1onc(-c2ccccc2)c1-c1ccnc(N[C@@H]2CCN(C(=O)OC(C)(C)C)C2)n1` showed an inhibition (Brugia malayi [1]) of 78%.
`Cc1onc(-c2ccccc2)c1-c1ccnc(N[C@H]2CC[C@@H](NC(=O)OC(C)(C)C)CC2)n1` showed an inhibition (Brugia malayi [1]) of 90% and an IC50 [2] of 94 nM.
In the case of `CC(=O)N[C@H]1CC[C@@H](Nc2nccc(-c3c(-c4ccccc4)noc3C)n2)CC1`, the inhibition (Brugia malayi [1]) is reported as 91% and the IC50 [2] is reported as 94 nM.
For `CC(=O)N[C@H]1CC[C@H](Nc2nccc(-c3c(-c4ccccc4)noc3C)n2)CC1`, the remaining at 1 h [4] was 89%, the IC50 [5] was 170 nM and the inhibition at 5 µM (CYP2C19) was 76%. It also gave an inhibition at 5 µM (CYP2D6) of 32%, an inhibition at 5 µM (CYP3A4) of 51% and a Ratio [6] of 10. The Time (Mus musculus) was 8 h, the Activity (Brugia malayi [7]) was “Active” and the inhibition at 5 µM (CYP2C9) was 59%. For the same compound, the IC50 [8] was 26 nM, the fraction unbound [9] was 0.08 and the inhibition at 5 µM (CYP1A2) was 29%. The inhibition (Brugia malayi [1]) was 93%, the Activity (Brugia malayi [10]) was “Active” and the Cmax [11] was 2960 nM. The remaining at 1 h [12] was 89%, the AUC [13] was 5.3 µM·h and the Tmax [14] was 30 min. It also gave an IC50 [2] of 24 nM.
For `Cc1onc(-c2ccccc2)c1-c1ccnc(NC2CCN(C(=O)OC(C)(C)C)CC2)n1`, the inhibition (Brugia malayi [1]) was 0%.
`Cc1onc(-c2ccccc2)c1-c1ccnc(N[C@H]2CC[C@H](NC(=O)OC(C)(C)C)CC2)n1` showed an inhibition (Brugia malayi [1]) of 83% and an IC50 [2] of 200 nM.
`CC(=O)N1CC[C@@H](Nc2nccc(-c3c(-c4ccccc4)noc3C(F)(F)F)n2)C1` gave an inhibition (Brugia malayi [1]) of 28%.
`Cc1onc(-c2ccccc2)c1-c1ccnc(N[C@@H]2CCN(S(=O)(=O)c3ccccc3)C2)n1` gave an inhibition (Brugia malayi [1]) of 44%.
`OCCC#Cc1nc(-c2ccc(F)cc2)c(-c2ccncc2)n1CCCc1ccccc1` [RWJ-67657] gave an IC50 [3] of 120 nM.
Compound `Cc1onc(-c2ccccc2)c1-c1ccnc(N[C@@H]2CCN(C(=O)c3ccccc3)C2)n1` has an inhibition (Brugia malayi [1]) of 12%.
